Tested on: deadnettle
Experiment: Test D pre-/postemergence herbicide test
Format: in vivo, Lamium amplexicaule
Conditions: for Plant response rating: Deadnettle, scale 0 to 100; for Plant response rating, Deadnettle: scale 0 to 100 (0 no effect, 100 complete control)
Source text: Seeds of plant species selected from bluegrass (annual bluegrass, Poa annua), blackgrass (Alopecurus myosuroides), canarygrass (littleseed canarygrass, Phalaris minor), chickweed (common chickweed, Stellaria media), galium (catchweed bedstraw, Galium aparine), bromegrass, downy (downy bromegrass, Bromus tectorum), field poppy (Papaver rhoeas), field violet (Viola arvensis), foxtail, green (green foxtail, Setaria viridis), deadnettle (henbit deadnettle, Lamium amplexicaule), ryegrass, Italian (Italian ryegrass, Lolium multiflorum), kochia (Kochia scoparia), lambsquarters (Chenopodium album), oilseed rape (Brassica napus), pigweed (Amaranthus retroflexus), chamomile (scentless chamomile, Matricaria inodora), Russian thistle (Salsola kali), speedwell (bird's-eye speedwell, Veronica persica), barley, spring (spring barley, Hordeum vulgare), wheat, spring (spring wheat, Triticum aestivum), buckwheat, wild (wild buckwheat, Polygonum convolvulus), mustard, wild (wild mustard, Sinapis arvensis), oat, wild (wild oat, Avena fatua), radish, wild (wild radish, Raphanus raphanistrum), […]), barley, winter (winter barley, Hordeum vulgare), and wheat, winter (winter wheat, Triticum aestivum) were planted into a silt loam soil and treated preemergence with test chemicals formulated in a non-phytotoxic solvent mixture which included a surfactant. At the same time, these species were planted in pots containing Redi-Earth® planting medium (Scotts Company, 14111 Scottslawn Road, Marysville, Ohio 43041) comprising spaghnum peat moss, vermiculite, wetting agent and starter nutrients and treated with postemergence applications of the test chemicals formulated in the same manner. Plants ranged in height from 2 to 18 cm (1- to 4-leaf stage). Treated plants and controls were maintained in a controlled growth environment for 7 to 21 days after which time all species were compared to controls and visually evaluated. Plant response ratings, summarized in Table D, are based on a scale of 0 to 100 where 0 is no effect and 100 is complete control. A dash (-) response means no test result.

O=C1NCC(c2ccc(F)c(F)c2)C1C(=O)Nc1ccccc1C(F)(F)F (racemic) [Compound 6]
Plant response rating (Postemergence, 16 g ai/ha): 0
Plant response rating (Postemergence, 31 g ai/ha): 0
Plant response rating (Postemergence, 62 g ai/ha): 0
Plant response rating (Postemergence, 125 g ai/ha): 10
Plant response rating (Postemergence, 250 g ai/ha): 10
Plant response rating, Deadnettle (Preemergence, 62 g ai/ha): 0
Plant response rating, Deadnettle (Preemergence, 16 g ai/ha): 0
Plant response rating, Deadnettle (Preemergence, 31 g ai/ha): 0
Plant response rating (Preemergence, 125 g ai/ha): 40
Plant response rating (Preemergence, 250 g ai/ha): 40

O=C1NCC(c2ccc(F)c(C(F)(F)F)c2)C1C(=O)Nc1cccc(F)c1F (racemic) [Compound 77]
Plant response rating, Deadnettle (Preemergence, 62 g ai/ha): 65
Plant response rating, Deadnettle (Preemergence, 31 g ai/ha): 15
Plant response rating (Preemergence, 125 g ai/ha): 60
Plant response rating (Preemergence, 250 g ai/ha): 75

O=C1NCC(c2cc(F)c(F)cc2F)C1C(=O)Nc1cccc(F)c1F (stereo not shown) [Compound 50]
Plant response rating (Postemergence, 16 g ai/ha): 0
Plant response rating (Postemergence, 31 g ai/ha): 0
Plant response rating (Postemergence, 62 g ai/ha): 0
Plant response rating (Postemergence, 125 g ai/ha): 0
Plant response rating, Deadnettle (Preemergence, 62 g ai/ha): 100
Plant response rating, Deadnettle (Preemergence, 16 g ai/ha): 50
Plant response rating, Deadnettle (Preemergence, 31 g ai/ha): 50
Plant response rating (Preemergence, 125 g ai/ha): 100

O=C1NCC(c2ccc(Cl)c(F)c2)C1C(=O)Nc1cccc(F)c1F (stereo not shown) [Compound 52]
Plant response rating (Postemergence, 16 g ai/ha): 0
Plant response rating (Postemergence, 31 g ai/ha): 0
Plant response rating (Postemergence, 62 g ai/ha): 0
Plant response rating (Postemergence, 125 g ai/ha): 20
Plant response rating (Postemergence, 250 g ai/ha): 25
Plant response rating, Deadnettle (Preemergence, 62 g ai/ha): 0
Plant response rating, Deadnettle (Preemergence, 16 g ai/ha): 0
Plant response rating, Deadnettle (Preemergence, 31 g ai/ha): 0
Plant response rating (Preemergence, 125 g ai/ha): 0
Plant response rating (Preemergence, 250 g ai/ha): 30

O=C1NCC(c2ccc(C(F)(F)F)cc2)C1C(=O)Nc1ccccc1F (stereo not shown) [Compound 231]
Plant response rating (Postemergence, 31 g ai/ha): 35
Plant response rating (Postemergence, 62 g ai/ha): 70
Plant response rating (Postemergence, 125 g ai/ha): 35
Plant response rating (Postemergence, 250 g ai/ha): 70
Plant response rating, Deadnettle (Preemergence, 62 g ai/ha): 75
Plant response rating, Deadnettle (Preemergence, 125 g ai/ha): 60
Plant response rating, Deadnettle (Preemergence, 31 g ai/ha): 35
Plant response rating (Preemergence, 250 g ai/ha): 85
